Results published in US11492644B2, “Genetically induced nephron progenitors” (MURDOCH CHILDRENS RESEARCH INSTITUTE, priority 2017, dated 2022).

Tested on: Cited1
Experiment: In situ reprogramming by renal pelvis hydrodynamic injection
Assay type: in vivo, mouse
Conditions: Cited1-CreERT2 BAC transgenic mice, 72 h post-injection
Experimental: Renal pelvis hydrodynamic injection was performed as previously described (Woodard et al Sci Rep 2017, Woodard et al J. Vis. Exp. 2017) on 15 week-old Cited1-CreER^T2 BAC transgenic mice (Boyle et al Dev. Biol. 2008). Mice were assayed for presence of the GFP transgene at weaning (Transnetyx, Cordova, Tenn.). A solution of 50 ug of pT-mSES in 100 uL of buffer QR (Minis Bio, Madison, Wis.) was injected quickly into the renal pelvis of mice anesthetized with ketamine/xylazine. Mice were treated every 8-12 h with buprenorphine for pain management for 48 h and sacrificed at 72 h post-injection.
There were eGFP-positive cells with a similar morphology present in both QR-injected and pT-mSES-injected transgenic animals (FIG. 16, panels a and b). However, only in the pT-mSES-injected transgenic animals were there cells appearing to be derived from tubule-like structures that were eGFP-positive (FIG. 16c). In contrast, in wild-type, non-transgenic mice receiving either QR or pT-mSES, no positive eGFP cells could be found. Therefore, cellular reprogramming to an induced nephron progenitor state may be possible in vivo following gene delivery of Snai2, Six1 and Eya1.

pT-mSES: piggyBac transposon plasmid (SEQ ID NO:12) expressing mouse Six1, Snai2 and Eya1 from the elongation factor 1 alpha promoter
eGFP expression from the Cited1 promoter: induced eGFP expression indicative of Cited1 positivity
